Assays:
[1] = tested on: colon cancer cell line HCT-116; experiment: colony formation assay; type: cell-based, human; settings: HCT-116, 10 days of treatment
Method: Cells were seeded at a density of 700 cells per 60 mm-diameter dish in growth medium. After 24 h, cells were treated with either vehicle (Co) or the indicated concentrations (in μM) of FTY720, myriocin (myrio), ST-968, and ST-1071, and further cultured for 10 days at 37° C. Thereafter, colonies were stained and quantified as described in the Methods Section. […] Rat renal mesangial cells were isolated, characterized, and cultured as previously described (Pfeilschifter et al., 1984). For the experiments performed in this study, cells between passages 8-30 were used. The human endothelial cell line EA.hy 926 was cultured in RPMI medium containing 10% (v/v) fetal bovine serum, 10 mM Hepes, pH 7.4, 100 units/ml penicillin, and 100 μg/ml streptomycin. HCT-116 colon carcinoma cells were cultured in McCoy medium including 10% (v/v) fetal bovine serum, 100 units/ml penicillin, and 100 μg/ml streptomycin. Prior to stimulation, all cells were rendered quiescent for 24 h in DMEM including 0.1 mg/ml of fatty acid-free bovine serum albumin (BSA). Cells were subcultured in 60 mm-diameter dishes at a density of 700 cells per dish. After 24 h, cells were treated with the indicated concentrations of the different compounds in growth medium and incubated for further 10 days to allow colony formation. Cells were then washed with PBS, air dried, and stained for 30 min with 2% (w/v) crystal violet, washed with water and air dried again. The number of colonies was quantified using a ColCount™ (Mammalian Cell Colony Counter, Oxford Optronix, Oxford, U.K.). Only colonies containing more than 50 cells were evaluated.

EA.hy 926 cells = experiment: serum-stimulated migration of endothelial cells, adapted Boyden chamber assay; type: cell-based, human; settings: 10% serum, 6 h, at 3 μM and 10 μM
Method: Serum-starved EA. by 926 cells in 8 μM-polycarbonate inserts were treated for 6 h with 10% serum in the absence or presence of the indicated concentrations of ST-968 or ST-1071. Migrated cells were stained with DAPI and counted in a fluorescence microscop.
EA.hy 926 cells were cultured for 24 h under serum-free conditions. Chemotaxis was measured in Cell Culture Inserts (polycarbonate-coated membranes, […] pore size). The lower compartment was filled with serum-free DMEM and 1.7×10^5 cells were seeded per insert in the absence or presence of the indicated stimuli and inhibitors. After the indicated time periods, non-migrated cells were mechanically removed from the membrane and cells that had migrated into the membrane were fixed in 4% paraformaldehyde in PBS and stained with lug/ml of 4′,6-diamidino-2-phenylindole (DAPI). DAPI-stained cells were counted using a fluorescence microscope. Each data point is the average number of cells in five random fields and is the mean of four individual wells.

[2] = tested on: p42/44-MAPK phosphorylation in renal mesangial cells; experiment: MAPK/ERK (p42/44) phosphorylation in renal mesangial cells, Western blot; type: cell-based, rat; settings: for agonistic potential on S1P receptors: concluded from MAPK/ERK activation and antagonist experiments; for p42/44 phosphorylation (p42/44-MAPK activity): rat renal mesangial cells, stimulation for 10 min; for effect on ST-968-induced p42/44 activation: pretreatment with pertussis toxin 100 ng/ml 16 h, or VPC23019 10 μM or W146 10 μM 30 min, then ST-968 1 μM 10 min
Method: (A+B): Confluent mesangial cells were pretreated for 16 h with pertussis toxin (100 ng/ml), or for 30 min with vehicle (−), VPC23019 (10 μM) and W146 (10 μM) prior to stimulation for 10 min with either vehicle (Co) or ST-968 (1 μM). (C): Cells were stimulated for 10 min with either vehicle (Co) or the indicated concentrations (in μM) of S1P and ST-1071. Thereafter, cell lysates containing 30 μg of protein were separated by SDS-PAGE, transferred to nitrocellulose and subjected to Western blot analysis using antibodies against phospho-p42/44 (dilution of 1:1000; A, upper panel) and total p42/ERK2 and p44/ERK1 (dilution 1:6000 each; B, lower panel). Blots were stained by the ECL method according to the manufacturer's recommendation. Bands corresponding to the phospho-p42/44 and total ERKs were densitometrically scanned and evaluated (B). Results in B are depicted as % of ST-968 stimulation and are means ±S.D. (n=3).
(§1) Rat renal mesangial cells were isolated, characterized, and cultured as previously described (Pfeilschifter et al., 1984). For the experiments performed in this study, cells between passages 8-30 were used. The human endothelial cell line EA.hy 926 was cultured in RPMI medium containing 10% (v/v) fetal bovine serum, 10 mM Hepes, pH 7.4, 100 units/ml penicillin, and 100 μg/ml streptomycin. HCT-116 colon carcinoma cells were cultured in McCoy medium including 10% (v/v) fetal bovine serum, 100 units/ml penicillin, and 100 μg/ml streptomycin. Prior to stimulation, all cells were rendered quiescent for 24 h in DMEM including 0.1 mg/ml of fatty acid-free bovine serum albumin (BSA).
(§2) Confluent mesangial cells were stimulated as indicated in the figure legends in Dulbecco's modified Eagle medium (DMEM) supplemented with 0.1 mg/ml of fatty acid-free bovine serum albumin and 10 mM HEPES. After stimulation, the supernatant was taken for PGE2 or NO quantification and for detection of secreted IIA-sPLA2. The cell monolayers were homogenized in lysis buffer and processed exactly as previously described (Huwiler et al., 2006). Cell lysates were taken for protein determination. Lysates containing equal amounts of protein, were separated by sodium dodecylsulfate-polyacrylamide gel electrophoresis (SDS-PAGE), transferred to nitrocellulose membranes and subjected for Western blot analysis using antibodies as indicated in the figure legends. Bands were detected by enhanced chemiluminescence method as recommended by the manufacturer.

[3] = tested on: nitric oxide (NO) formation; experiment: cytokine-triggered nitric oxide release from renal mesangial cells, Griess reagent; type: cell-based, rat; settings: IL-1β 1 nM plus forskolin 10 μM, 24 h
Method: Cells were treated for 24 h with either vehicle (−) or with interleukin 1 β (1 nM) plus forskolin (10 μM) (IL-1/Fk, +) in the absence or presence of the indicated concentrations of ST-968 (in μM), or betamethasone (in nM). Thereafter, supernatants were collected and nitrite was quantified by using the Griess reagent.
Quiescent mesangial cells in 24-well plates were stimulated as indicated, and the supernatants were taken for nitrite determination using Griess reagent as described (Green et al., 1982).

[4] = tested on: secretory phospholipase A2 (sPLA2) expression; experiment: cytokine-triggered secretory phospholipase A2 expression in renal mesangial cells, Western blot; type: cell-based, rat; settings: IL-1β 1 nM plus forskolin 10 μM, 24 h, increasing doses of ST-968
Method: Cells were treated for 24 h with either vehicle (−, 0) or with interleukin 1 β (1 nM) plus forskolin (10 μM) (IL-1/Fk, +) in the absence (0) or presence of the indicated concentrations of ST-968. Thereafter, supernatants were collected and equal volumes were taken for protein precipitation using trichloroacetic acid. Equal aliquots were separated by SDS-PAGE, transferred to nitrocellulose and subjected to Western blot analysis using a monoclonal antibody against rat sPLA2 at a dilution of 1:60. Blots were stained by the ECL method according to the manufacturer's recommendation. Data are representative of two independent experiments giving similar results.
as §2, with “Lysates containing equal amounts of protein, were separated by sodium dodecylsulfate-polyacrylamide gel electrophoresis (SDS-PAGE), transferred to nitrocellulose membranes and subjected for Western blot analysis using antibodies as indicated in the figure legends.” left out, “manufacturer. […]” for “manufacturer.”

[5] = tested on: p42/44-MAPK phosphorylation in EA.hy 926 cells; experiment: MAPK/ERK phosphorylation in the endothelial cell line EA.hy 926, Western blot; type: cell-based, human; settings: 1 μM
Method: Confluent EA.hy 926 cells were treated either for 10 min (left side) or for 4 h (right side) with either vehicle (Co), S1P (1 μM), or ST-968 (1 μM). Thereafter, cell lysates containing 30 μg of protein were separated by SDS-PAGE, transferred to nitrocellulose and subjected to Western blot analysis using antibodies against phospho-ERK½ (dilution of 1:1000; A, upper panel), and total p42/ERK2 and p44/ERK1(dilutions each 1:6000; B, lower panel). Blots were stained by the ECL method according to the manufacturer's recommendation. Bands corresponding to the phospho-ERKs were densitometrically evaluated and results are depicted as % of control and are means ±S.D. ([…]).
as §1
as §2, with “Lysates containing equal amounts of protein, were separated by sodium dodecylsulfate-polyacrylamide gel electrophoresis (SDS-PAGE), transferred to nitrocellulose membranes and subjected for Western blot analysis using antibodies as indicated in the figure legends.” left out

[6] = tested on: breast cancer cell lines (MCF-7, MDA-MB-231 and Sk-Br-3) and colon cancer cell lines (HCT-116 and SW620); settings: cited from earlier work; for growth inhibition: Nagaoka et al. 2008, in the concentration tested
MCF-7 cells = settings: Nagaoka et al. 2008; cited from earlier work

Compound: CCCCCCCCc1ccc(CCC23COCN2COC3)cc1 [ST-968, 7a-(4-Octylphenethyl)Tetrahydro-1H-Oxazolo[3,4-c]Oxazole]
- colony formation [1]: strongly reduced colony formation
- colony formation ([1]; listed as ST 968): inhibited and/or reduced the colony formation
- serum-stimulated migration (EA.hy 926 cells): able to reduce serum-stimulated migration
- agonistic potential on S1P receptors [2]: have agonistic potential on one or several of the S1P receptors
- agonistic potential on S1P receptors ([2]; listed as ST 968): exhibited agonistic potential for one or several of the S1P receptor subtypes
- p42/44 phosphorylation (p42/44-MAPK activity) [2]: increased p42/44 phosphorylation
- IL-1β/forskolin induced NO formation [3]: dose-dependently reduced
- sPLA2 expression [4]: reduced
- activation of the p42/44-MAPK cascade [5]: could activate the p42/44-MAPK cascade
- p42/44 phosphorylation, ST-968 compared with S1P ([5]; 4 h of stimulation): more potently increasing p42/44 phosphorylation than S1P

Compound: CCCCCCCCc1ccc(CCC(N)(CO)CO)cc1.Cl [FTY720, 2-Amino-2[2-(4-octylphenyl)ethyl]propane-1,3-diol, reference compound]
- colony formation [1]: completely abolished colony formation
- growth inhibition [6]: significant growth inhibition

Compound: CCCCCCCOc1ccc(CCC23COCN2COC3)cc1 [ST-1071, 7a-(4-(Heptyloxy)Phenethyl)Tetrahydro-1H-Oxazolo[3,4-c]Oxazole]
- colony formation [1]: strongly reduced colony formation
- colony formation ([1]; listed as ST 1071): inhibited and/or reduced the colony formation
- serum-stimulated migration (EA.hy 926 cells): able to reduce serum-stimulated migration
- agonistic potential on S1P receptors [2]: have agonistic potential on one or several of the S1P receptors
- agonistic potential on S1P receptors ([2]; listed as ST1071): exhibited agonistic potential for one or several of the S1P receptor subtypes
- p42/44 phosphorylation (p42/44-MAPK activity) [2]: stimulated p42/44 phosphorylation after 10 min in a concentration-dependent manner
- potency on p42/44 phosphorylation compared with S1P ([2]; renal mesangial cells, 10 min): less potent than S1P

Compound: CCCCCCc1cccc(NC(=O)[C@H](N)CCP(=O)(O)O)c1 [W146, (R)-3-amino-(3-hexylphenylamino)-4-oxobutylphosphonic acid, reference compound]
- effect on ST-968-induced p42/44 activation [2]: had no effect

Compound: CCCCCCC(=O)CCCCCC/C=C/C[C@@H](O)[C@H](O)[C@@](N)(CO)C(=O)O [myriocin, reference compound]
- colony formation [1]: had no effect

Compound: CCCCCCCCCCCCC/C=C/[C@@H](O)[C@H](CO)N(C)C [dimethylsphingosine]
- effect of the combination on the inhibitory effect of FTY720 ([6]; combined with FTY720, Nagaoka et al. 2008): augmented the inhibitory effect of FTY720

Compound: pertussis toxin [reference compound]
- effect on ST-968-induced p42/44 activation [2]: only partially blocked

Compound: CCCCCCCCCCCCC/C=C/[C@@H](O)[C@@H](N)COP(=O)(O)O [S1P, sphingosine-1-phosphate]
- growth of MCF-7 cells (MCF-7 cells): slightly induced the growth
- growth inhibition [6]: did not inhibit the growth
- p42/44 phosphorylation, S1P compared with ST-968 ([5]; 10 min of stimulation): more potent to increase p42/44 phosphorylation than ST-968

Compound: CCCCCCCCCCCCC/C=C/[C@@H](O)[C@@H](N)CO [sphingosine]
- growth inhibition [6]: significant growth inhibition

Compound: CCCCCCCCc1ccc(CC[C@](N)(CO)COP(=O)(O)O)cc1 [FTY720-P, FTY720-1-phosphate]
- growth of MCF-7 cells (MCF-7 cells): slightly induced the growth
- growth inhibition [6]: did not inhibit the growth

Compound: CCCCCCCCc1cccc(NC(=O)[C@H](N)COP(=O)(O)O)c1 [VPC23019, reference compound]
- effect on ST-968-induced p42/44 activation [2]: completely abolished

Reference: patent publication US20140100248A1, “Novel Heterocyclic Compounds as Modulators of Sphingolipid Signaling and Uses Thereof” (UNIVERSITÄT BERN, priority 2011, published 2014)
